The target in test [1] is T1, Replicative DNA helicase DnaB (Mycobacterium tuberculosis, UniProt P9WMR3).
T1 sequence (P9WMR3 whole entry): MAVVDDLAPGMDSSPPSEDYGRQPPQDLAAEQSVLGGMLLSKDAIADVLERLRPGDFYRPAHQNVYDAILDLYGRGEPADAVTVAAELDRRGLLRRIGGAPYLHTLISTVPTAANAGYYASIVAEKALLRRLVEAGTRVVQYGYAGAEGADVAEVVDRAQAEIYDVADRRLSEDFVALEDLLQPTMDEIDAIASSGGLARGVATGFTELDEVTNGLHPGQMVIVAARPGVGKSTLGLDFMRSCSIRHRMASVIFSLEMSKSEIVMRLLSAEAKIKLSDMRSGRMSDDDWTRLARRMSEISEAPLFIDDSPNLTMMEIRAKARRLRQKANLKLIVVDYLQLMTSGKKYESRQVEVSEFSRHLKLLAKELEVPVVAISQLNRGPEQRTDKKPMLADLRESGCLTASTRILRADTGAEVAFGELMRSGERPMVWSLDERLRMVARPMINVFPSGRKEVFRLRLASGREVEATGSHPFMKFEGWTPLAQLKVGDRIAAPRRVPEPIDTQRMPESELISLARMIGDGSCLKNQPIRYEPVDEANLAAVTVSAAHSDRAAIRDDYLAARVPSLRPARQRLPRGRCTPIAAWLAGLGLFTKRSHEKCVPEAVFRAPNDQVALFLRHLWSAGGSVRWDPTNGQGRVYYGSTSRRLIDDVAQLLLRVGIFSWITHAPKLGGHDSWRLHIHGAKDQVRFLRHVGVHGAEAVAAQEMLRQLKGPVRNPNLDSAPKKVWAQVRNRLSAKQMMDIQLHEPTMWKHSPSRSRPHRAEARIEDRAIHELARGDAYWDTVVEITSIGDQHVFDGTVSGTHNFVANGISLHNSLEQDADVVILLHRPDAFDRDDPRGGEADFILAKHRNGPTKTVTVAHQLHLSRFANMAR
Kind of test: DnaB intein splicing inhibitors, dose response, biochemical, cell-free fluorescence (AID 449749). In kind it is functional.

The next test concerns the target T2, Protein RecA (Mycobacterium tuberculosis, UniProt P9WHJ3).
T2 sequence (P9WHJ3 whole entry): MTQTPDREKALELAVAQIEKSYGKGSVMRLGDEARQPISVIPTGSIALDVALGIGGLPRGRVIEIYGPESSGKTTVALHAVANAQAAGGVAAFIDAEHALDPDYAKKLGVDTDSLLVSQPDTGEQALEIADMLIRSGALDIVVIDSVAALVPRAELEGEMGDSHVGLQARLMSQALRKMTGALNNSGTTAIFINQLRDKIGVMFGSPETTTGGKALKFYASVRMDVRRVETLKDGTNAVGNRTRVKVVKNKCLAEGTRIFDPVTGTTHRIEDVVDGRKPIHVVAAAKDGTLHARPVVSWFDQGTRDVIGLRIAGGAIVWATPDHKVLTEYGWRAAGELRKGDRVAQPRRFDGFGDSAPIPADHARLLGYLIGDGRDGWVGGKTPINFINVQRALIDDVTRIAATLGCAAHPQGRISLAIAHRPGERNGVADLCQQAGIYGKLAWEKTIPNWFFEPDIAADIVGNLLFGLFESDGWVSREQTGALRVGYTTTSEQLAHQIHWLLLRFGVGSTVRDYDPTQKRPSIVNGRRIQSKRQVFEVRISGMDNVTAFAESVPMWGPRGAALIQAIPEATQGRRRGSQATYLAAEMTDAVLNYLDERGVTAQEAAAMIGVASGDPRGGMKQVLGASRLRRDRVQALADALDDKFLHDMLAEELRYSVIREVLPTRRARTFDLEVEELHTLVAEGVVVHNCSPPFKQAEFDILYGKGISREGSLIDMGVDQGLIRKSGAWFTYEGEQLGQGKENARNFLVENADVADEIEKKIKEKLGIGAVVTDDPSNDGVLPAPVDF
As to the kind of experiment: Fluorescence Cell-Free Homogeneous Dose Retest to Identify Inhibitors of RecA-Intein Splicing Activity. [Related pubchem assays (depositor defined):AID2097, AID2223, AID489010, AID492950]. In kind it is functional.

Test [2] in a line: inhibitors of intracellular T. cruzi replication, confirmation, NIH3T3 host cells, beta-gal luminescence (AID 2044).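 Note: intracellular parasites grown in NIH/3T3 mouse fibroblasts as host cells; luminescent beta-galactosidase reporter signal from transgenic T. cruzi replicating inside host cells; inhibitors lower the luminescence signal.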 The class given is functional, cell-based.
The subject of another test is Streptococcus. Kind of test: Group A Streptococcus viability loss, dose response, counter-screen for streptokinase expression inhibitor project, luminescence, BacTiterGlo (AID 1915).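 Note: potency for reduction of bacterial viability or growth.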 The class given is functional, organism-based.
The target in the next test is T3, Streptokinase A (Streptococcus pyogenes serotype M1, UniProt P10520).
T3 sequence (P10520 whole entry): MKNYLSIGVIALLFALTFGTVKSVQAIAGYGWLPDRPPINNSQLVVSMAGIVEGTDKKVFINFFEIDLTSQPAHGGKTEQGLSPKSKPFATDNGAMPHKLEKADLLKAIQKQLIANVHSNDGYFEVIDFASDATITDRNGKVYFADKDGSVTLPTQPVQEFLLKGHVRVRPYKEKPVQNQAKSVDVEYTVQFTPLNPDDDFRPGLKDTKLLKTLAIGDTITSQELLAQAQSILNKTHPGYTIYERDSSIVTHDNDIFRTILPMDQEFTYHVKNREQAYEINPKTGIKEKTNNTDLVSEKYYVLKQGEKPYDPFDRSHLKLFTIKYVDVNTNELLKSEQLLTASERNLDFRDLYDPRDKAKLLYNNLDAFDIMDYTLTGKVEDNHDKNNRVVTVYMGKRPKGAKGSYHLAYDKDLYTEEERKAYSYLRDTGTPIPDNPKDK
Kind of test: S. pyogenes streptokinase expression inhibitors, potency, dose response, plasminogen activation absorbance, OD405 (AID 1914).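 Note: secreted streptokinase activity via plasminogen activation per viability signal from cell pellet.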 In kind it is functional, Streptococcus pyogenes M1 GAS.

The subject of test [3] is Streptococcus sp. 'group A'. Kind of test: growth inhibition of control SK(-) GAS strain, dose response, counter-screen for streptokinase expression inhibitor project, luminescence, kanamycin, BacTiterGlo, confirmation (AID 1900). The class given is functional, organism-based. A general note: Counterscreens check selectivity or assay interference.
Test [4] in a line: cytotoxicity toward NIH3T3 fibroblasts, dose response, counter-screen, cell-based, ATP luminescence, mouse fibroblasts (AID 2010).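 Note: cells exposed to compound for about 90 hours before reading.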 In kind it is functional.
The target of a further test is T4, Cytochrome P450 1A2 (Homo sapiens, UniProt P05177).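 Note: PubChem cytochrome P450 panel assay, CYP1A2 panel member.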
T4 sequence (P05177 whole entry): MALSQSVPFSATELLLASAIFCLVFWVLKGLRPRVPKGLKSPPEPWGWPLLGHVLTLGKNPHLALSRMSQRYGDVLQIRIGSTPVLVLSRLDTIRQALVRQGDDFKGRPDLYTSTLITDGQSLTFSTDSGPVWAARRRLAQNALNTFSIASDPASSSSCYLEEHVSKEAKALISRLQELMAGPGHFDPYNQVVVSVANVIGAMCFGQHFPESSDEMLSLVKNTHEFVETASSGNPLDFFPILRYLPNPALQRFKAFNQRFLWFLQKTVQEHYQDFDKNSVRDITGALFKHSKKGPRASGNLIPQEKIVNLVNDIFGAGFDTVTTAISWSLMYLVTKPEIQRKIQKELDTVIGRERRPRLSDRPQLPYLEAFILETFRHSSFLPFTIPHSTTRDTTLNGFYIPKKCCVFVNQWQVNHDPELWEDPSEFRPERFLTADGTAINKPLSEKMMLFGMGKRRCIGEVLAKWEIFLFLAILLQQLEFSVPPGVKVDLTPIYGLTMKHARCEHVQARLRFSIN

Experimental findings from ChEMBL document CHEMBL1201862, “PubChem BioAssay data set” (2004) are described below.

Active and inactive are the calls of the source. Cut-off read from the data, not from the text of the source, for most assays here: actives have a measured EC50 and inactives only a lower limit. A value given as a limit tells only on which side of the number the result lay.

As usually defined, the AC50 is the concentration giving half of the maximal activity seen. As a reminder, the EC50 is the concentration at which the effect is half-maximal. Consider `O=[N+]([O-])C(/C=C(/Cl)[N+](=O)[O-])=C(N1CCCCC1)N1CCCCC1`, for which, in test [1], the AC50 is 14.5 µM (active). Moreover, the results for the EC50 (at Protein RecA; in test [2]) were 8.34 µM (active) and 1.25 µM (active), respectively.
As for `COC(=O)CSc1nc2sc3c(c2c(=O)n1C1CCCCC1)CCN(C)C3`, the AC50 in test [1] is > 120 µM (inactive). In addition, on Protein RecA, the EC50 is 31.4 µM (active).
`Cc1cc(Oc2ccc(-c3ccccc3)cc2)nc(N2CCOCC2)n1`: the EC50 with Streptococcus was > 150 µM (not active); on Streptokinase A, 35.4 µM (active); in test [3], 49.7 µM (active).
Regarding `C=C(C)c1cccc(C(C)(C)NC(=O)NC2CCN(Cc3ccccc3)CC2)c1`, the EC50 was > 60 µM (not active) in test [4] and 0.103 µM (active) in test [2].
On the same counts, the results for `CN1CCN(c2nc(-c3ccccc3)nc(-c3ccc(F)cc3)c2C#N)CC1` are > 60 µM (not active) and 1.25 µM (active).
On the same counts, the results for `CCOC(=O)c1cc(-c2ccc(F)cc2)n(CCC(=O)NC2CCN(Cc3ccccc3)CC2)c1C` are > 60 µM (not active) and 0.773 µM (active).
Take `COc1ccc(C2CC(c3ccccc3)=NN2c2ccc(S(N)(=O)=O)cc2)cc1` (stereo not given): the EC50 in test [4] was > 60 µM (inconclusive); in test [2], 2.83 µM (active).
On the same counts, the results for `COc1ccc(Br)cc1C(=O)Nc1ccc(Cc2ccncc2)cc1` are > 60 µM (not active) and 3.4 µM (active).
In the case of `CN(C)CCNC(=O)c1cc(Sc2ccc(F)cc2)nc2ccccc12`, the concentration for a half-maximal effect (EC50) was > 60 µM (not active) in test [4] and 0.282 µM (active) in test [2].
As to `CCOC(=O)c1cc(-c2ccc(OC(F)F)cc2)nc2c1c(=O)[nH]c(=O)n2C`, the EC50 with Streptococcus was 1.97 µM (active); in test [3], 0.458 µM (active).
For the molecule `CCCC(=O)OCCNc1cc(SCc2ccco2)c2nonc2c1[N+](=O)[O-]`, the AC50 in test [1] is 4.88 µM (active). Besides, the EC50 on Protein RecA was 1.98 µM (active).
In the case of `COc1ccc(C2=NN(C(=O)/C=C/c3ccccc3)C(c3ccccc3)C2)c(OC(C)=O)c1` (stereo not given), in test [1], the AC50 was > 380 µM (inactive). Further, at Protein RecA, the EC50 was 53.8 µM (active).
In the case of `O=C(O)COc1ccc(OCCNC[C@@H](O)COc2ccccc2)cc1`, the AC50 on Cytochrome P450 1A2 was 39.8 µM (inconclusive).
`Nc1nc(-c2ccc(Br)cc2)c(S(=O)(=O)c2ccccc2)s1`: the AC50 in test [1] is 4.22 µM (active). Further, the EC50 on Protein RecA is > 380 µM (inactive).
Take `CCC[C@@H]1C[C@@]1(CCC)C(NC(=O)c1ccco1)c1ccc(Cl)cc1` (stereo not given in full): the AC50 on Cytochrome P450 1A2 was 25.1 µM (inconclusive).
On to `CCCc1n[nH]c2c1C(c1cccc(OC)c1)C(C#N)=C(N)O2` (stereo not given), for which the AC50 in test [1] was 19.3 µM (active). The EC50 on Protein RecA is 9.09 µM (active).
Take `Cc1ccc(NC(=S)NC(=O)c2c(-c3ccccc3Cl)noc2C)cc1`: the AC50 on Cytochrome P450 1A2 is 8.91 µM (inconclusive).
Consider `CS(=O)(=O)N1CCC2(CC1)CN(c1ccccc1)C2`, for which the AC50 on Cytochrome P450 1A2 is 20 µM (inconclusive).
As for `CCN1C(=O)C(=NNc2cccc(S(=O)(=O)N3CCOCC3)c2)C(=O)N(CC)C1=S`, the AC50 in test [1] was > 380 µM (inactive). In addition, the EC50 on Protein RecA was > 380 µM (inconclusive).
Regarding `Cc1cccn2c(CNCC3(c4ccccc4)CCCC3)c(C(=O)N3CCOCC3)nc12`, the AC50 in test [1] is > 380 µM (inactive). Moreover, at Protein RecA, the EC50 was > 380 µM (inactive).
Take `CCOC(=O)Cc1n[nH]c2c1C(c1ccsc1)C(C#N)=C(N)O2` (stereo not given): in test [1], the AC50 was > 380 µM (inactive). Also, the EC50 at Protein RecA is 31.3 µM (active).
On the same counts, the results for `CN(N)C(S)=Nc1ccc(Cl)cc1` are > 380 µM (inactive) and > 380 µM (inactive).
Regarding `CCC(C)Sc1cc(C(F)(F)F)c(C(=O)Nc2ccc(Cl)cc2)cn1` (stereo not given), the EC50 in the test with Streptococcus was 7.94 µM (active); on Streptokinase A it was 2.38 µM (active); in test [3], 4.03 µM (active).
As to `COCCn1c(=O)c(-c2cc(F)cc(F)c2)nc2cnc(Nc3cccc(OC)c3)nc21`, the AC50 at Cytochrome P450 1A2 is 2.51 µM (inconclusive).
As for `COc1ccc2cc(C(=O)/C=C/c3cc(OC)c(O)c(OC)c3)ccc2c1`, the EC50 is 14.7 µM (active) with Streptococcus, > 150 µM (not active) on Streptokinase A and 5.61 µM (active) in test [3].
As for `CSc1ccc(NC(=O)Nc2cccn(Cc3ccccc3F)c2=O)cc1`, the values for the EC50 in test [4] and in test [2] were > 60 µM (not active) and 4.33 µM (active), respectively.
As to `O=C(/C=C\c1ccc(Cl)cc1)N[C@@]12CCC(=O)[C@@H]3Oc4c(O)ccc5c4[C@@]31CCN(CC1CC1)[C@@H]2C5`, at Cytochrome P450 1A2, the AC50 is 39.8 µM (inconclusive).
In the case of `Cc1ccc(NC(=O)C2CCCN(C(=O)c3ccc(Cl)cc3)C2)cc1S(=O)(=O)N1CCOCC1` (stereo not given), the EC50 in test [4] is > 60 µM (not active); in test [2], 26.6 µM (active).
As to `c1ccc(CCNc2ccccn2)nc1`, the AC50 on Cytochrome P450 1A2 was 5.01 µM (inconclusive).
`CCOc1cc(/C=N\NC(=O)OC(C)(C)C)ccc1OC(=O)c1ccco1`: the AC50 in test [1] is 12.8 µM (active). In addition, the EC50 on Protein RecA was 19.8 µM (active).
Regarding `OCCNc1nc(Nc2ccc(Br)cc2)nc2ccccc12`, the EC50 was > 30 µM (not active) in test [4] and 0.801 µM (active) in test [2].
Regarding `CCOC(=O)C1=C(C)NC(C)=C(C(=O)OC)[C@@H]1c1cccc([N+](=O)[O-])c1` [(S)-NITRENDIPINE], the AC50 at Cytochrome P450 1A2 was 15.8 µM (inconclusive).
